Data on two compounds can be found in US12286474B2, “Anti-CD38 antibodies for treatment of acute myeloid leukemia” (Janssen Biotech, Inc., priority 2014, dated 2025).

Test [1] has as its system NB-4 AML cell line. As to the kind of experiment: CD38 surface expression by FACS with PE-labeled anti-CD38 antibody. The class given is cell-based. To be noted: 24 hours; for PE-CD38 molecules/cell: NB-4. Here is the method:
Effect of ATRA on CD38 surface expression was assessed in NB-4 AML cell line. Tumor cells were incubated at 37° C. for 24 hours in the presence or absence of 10 nM or 100 nM ATRA. After 24 hour incubation, the cells were harvested and stained for CD38. ATRA induced ˜10-fold increase in CD38 receptors in the NB-4 cell line. CD38 surface expression was assessed using FACS using PE-labeled anti-CD38 antibody (R&D Systems) (Table 2).

The test system of test [2] is AML cell lines. As to the kind of experiment: Apoptosis, summary over AML cell lines. Format: cell-based. Here is the method:
(§1) One ml of target cells (5×10^5 cells/ml) were added to the well of a 24-well plate, together with test antibody (1 μg/ml) in the presence or absence of rabbit anti-huIgG (10 μg/ml; F(ab′)2 Fcγ-specific). Cells were incubated for 22 hours (5% CO2, 37° C.). Thereafter, cells were harvested (1000 rpm, 5 min) and washed twice in PBS (1000 rpm, 5 min). Cells were resuspended in 250 μl binding buffer (Annexin-V Apoptosis kit, BD Biosciences) according to manufacturer's instruction, followed by flow cytometry analysis.
(§2) Apoptosis was measured by both early and late apoptosis (Q2 and Q3 in FIG. 1A and FIG. 1B).

Test [3] concerns MOLM-13. As to the kind of experiment: CDC (cell lysis, CellTiter-Glo). To be noted: human serum 10%. The class given is cell-based. Here is the method: (§3) Target cells were harvested and adjusted to a concentration of 80×10^4 cells/ml. Twelve μl of target cells were added to wells of a 96-well plate, and serial dilution of antibodies added onto the cells. The wells were incubated for 15 minutes, after which human serum high in complement was added at a final concentration of 10%. Reaction mixture was incubated for 21/2 hours at 37° C., and cell lysis was measured using the CellTiter-Glo® assay (Promega).

Test [4] has as its system NB4. As to the kind of experiment: CDC (cell lysis, CellTiter-Glo). Format: cell-based. The conditions noted are these: human serum 10%. Here is the method:
as §3

Test [5] deals with MV-4-11. As to the kind of experiment: CDC (cell lysis, CellTiter-Glo). The class given is cell-based. To be noted: human serum 10%. Here is the method:
as §3

The subject of test [6] is MOLM-16. The test can be described thus: CDC (cell lysis, CellTiter-Glo). The class given is cell-based. The conditions noted are these: human serum 10%. On the procedure: as §3
Test [7] relates to THP-1. The test can be described thus: CDC (cell lysis, CellTiter-Glo). The conditions noted are these: human serum 10%. Format: cell-based. On the procedure: as §3
Test [8] has as its system ML-2. The test can be described thus: CDC (cell lysis, CellTiter-Glo). The class given is cell-based. To be noted: human serum 10%. On the procedure:
as §3

Test [9] concerns AML cell lines. The test can be described thus: ADCC, summary over AML cell lines. Format: cell-based. On the procedure: (§4) In vitro ADCC assays were performed using AML tumor cell lines and Peripheral Blood Mononuclear Cells (PBMC) as effector cells at a ratio of 50:1. One hundred μl of target (tumor) cells (1×10^4 cells) were added to wells of 96-well U-bottom plates. An additional 100 μl was added with or without antibody, and the plates were incubated for 30 minutes at room temperature (RT) before adding effector cells (PBMC). Seventy five μl of PBMCs at concentration 6.66×10^6 cells/ml was added to the wells of the plates, and the plates were incubated at 37° C. for 6 hours. Plates were centrifuged at 250 g for 4 minutes, 50 μl of supernatant removed per well and cell lysis was measured using the CellTiter-Glo® assay (Promega).

The subject of a further test is AML 3406 model. The test can be described thus: Patient-derived xenograft (PDX) AML 3406 model, leukemic burden. Format: in vivo, NSG mice. To be noted: for tumor burden (% leukemic CD45+CD33+ cells): i.p. 10 mg/kg once a week, 5 weeks. The text has this:
(§5) Patient tumor models AML 3406, AML 7577 and AML 8096 were used in the study.
AML3406 model: Patient tumor cells were positive for FLT-3ITD. Patient has a history of polycythemia versa, and received idarubicin/cytrabine for induction chemotherapy. Patient also received Hudrea® (hydroxyurea).
(§6) 5 million AML MNCs were T-cell depleted and transplanted via tail vein into 6-8 weeks old sub-lethally irradiated NSG mice (n=10 per group). 4 to 6 weeks post-engraftment, bone marrow aspirates were collected from each mouse and were analyzed by flow cytometry to determine the level of leukemia engraftment (% of human CD45^+CD33^+/− cells). Based on engraftment levels, mice were randomized and conditioned with either IgG1 or daratumumab (DARA, pre-dosing at 0.5 mg/kg). 24 hours later, mice were untreated (Ctrl) or treated for 5 consecutive weeks with DARA or IgG1 alone (i.p, 10 mg/kg once a week). 2-3 days after the last treatment, mice were sacrificed and bone marrow, spleen, peripheral blood and plasma were collected for analysis. Flow cytometry was performed to assess percentage of human CD45^+CD33^+ cells in the BM, SPL and PB of 3 AML patients engrafted in NSG mice (AML 3406 model: FIG. 2A; AML 7577 model: FIG. 2B, AML 8096 model: FIG. 2C) and absolute number of the human CD45^+CD33^+ cells in bone marrow (FIG. 3A), spleen (FIG. 3B) and peripheral blood (FIG. 3C) of one representative AML patient.

Test [10] deals with AML cell lines. As to the kind of experiment: CDC, summary over AML cell lines. Format: cell-based. On the procedure: as §3
The test system of test [11] is CD38 on leukemia blasts (CD45+CD33+ positive cells). The test can be described thus: CD38 expression on leukemic blasts in PDX AML 3406 model. Format: in vivo, NSG mice. To be noted: after 5 weeks of treatment. Here is the method: as §6
Effect of daratumumab on CD38 expression on leukemic blasts was assessed in one representative AML model described in Example 3 after 5 weeks of treatment with daratumumab or isotype control using PE-labeled anti-CD38 antibody (R&D Systems).

The subject of a further test is AML 8096 model. As to the kind of experiment: Patient-derived xenograft (PDX) AML 8096 model, leukemic burden. The class given is in vivo, NSG mice. The conditions noted are these: spleen, i.p. 10 mg/kg once a week, 5 weeks.
Source text: as §5
AML 8096 model: Leukemic cells were collected from a person with AML (FAB subtype M2). White blood cell count was 20×10e^9/L, from which 70% were blast cells. Patient had normal karyotype with wild type TP53, FLT3, NPM1, and insertion 570-587, 3GCACCC>4GCACCC in CEBPA exon1. Patient has a history of polycythemia versa, and received idarubicin/cytrabine for induction chemotherapy. Patient also received Hudrea® (hydroxyurea).
as §6, with “Flow cytometry was performed to assess percentage of human CD45^+CD33^+ cells in the BM, SPL and PB of 3 AML patients engrafted in NSG mice (AML 3406 model: FIG. 2A; AML 7577 model: FIG. 2B, AML 8096 model: FIG. 2C) and absolute number of the human CD45^+CD33^+ cells in bone marrow (FIG. 3A), spleen (FIG. 3B) and peripheral blood (FIG. 3C) of one representative AML patient.” left out

For test [12], the system named is MOLM-13. The test can be described thus: In vitro ADCC with PBMC effector cells. Format: cell-based. The conditions noted are these: PBMC effector cells at ratio 50:1, 6 hours. On the procedure: as §4
Test [13] concerns NB4. The test can be described thus: In vitro ADCC with PBMC effector cells. To be noted: PBMC effector cells at ratio 50:1, 6 hours. The class given is cell-based. Here is the method: as §4
Test [14] has as its system MV-4-11. As to the kind of experiment: In vitro ADCC with PBMC effector cells. The class given is cell-based. The conditions noted are these: PBMC effector cells at ratio 50:1, 6 hours. Here is the method:
as §4

The subject of test [15] is MOLM-16. As to the kind of experiment: In vitro ADCC with PBMC effector cells. To be noted: PBMC effector cells at ratio 50:1, 6 hours. Format: cell-based. Here is the method: as §4
Test [16] has as its system THP-1. As to the kind of experiment: In vitro ADCC with PBMC effector cells. The class given is cell-based. The conditions noted are these: PBMC effector cells at ratio 50:1, 6 hours. On the procedure:
as §4

Test [17] concerns ML-2. The test can be described thus: In vitro ADCC with PBMC effector cells. Format: cell-based. To be noted: PBMC effector cells at ratio 50:1, 6 hours. Here is the method: as §4
The test system of another test is AML 7577 model. As to the kind of experiment: Patient-derived xenograft (PDX) AML 7577 model, leukemic burden. The class given is in vivo, NSG mice. The conditions noted are these: peripheral blood, i.p. 10 mg/kg once a week, 5 weeks.
Source text: as §5
AML 7577 model: Leukemic cells were collected from a person with AML (FAB subtype M5). Patient had normal karyotype and following mutations: IDH2(R140Q); FLT3-ITD; DNMT3A R882H, NPM1, CEBPA insertion (SNP). Patient has a history of polycythemia versa, and received idarubicin/cytrabine for induction chemotherapy. Patient also received Hudrea® (hydroxyurea).
as §6, with “Flow cytometry was performed to assess percentage of human CD45^+CD33^+ cells in the BM, SPL and PB of 3 AML patients engrafted in NSG mice (AML 3406 model: FIG. 2A; AML 7577 model: FIG. 2B, AML 8096 model: FIG. 2C) and absolute number of the human CD45^+CD33^+ cells in bone marrow (FIG. 3A), spleen (FIG. 3B) and peripheral blood (FIG. 3C) of one representative AML patient.” left out

Test [18] relates to MOLM-13. The test can be described thus: Apoptosis (Annexin-V flow cytometry). The class given is cell-based. The conditions noted are these: antibody 1 μg/ml, 22 hours, early and late apoptosis. On the procedure:
as §1, §2

Test [19] concerns MV-4-11. The test can be described thus: Apoptosis (Annexin-V flow cytometry). The conditions noted are these: antibody 1 μg/ml, 22 hours, early and late apoptosis. The class given is cell-based. Here is the method:
as §1, §2

In test [20] the test system is MOLM-16. As to the kind of experiment: Apoptosis (Annexin-V flow cytometry). The class given is cell-based. To be noted: antibody 1 μg/ml, 22 hours, early and late apoptosis. Here is the method:
as §1, §2

Test [21] has as its system NB-4 AML cell line. As to the kind of experiment: Apoptosis (Annexin-V flow cytometry). The class given is cell-based. To be noted: for daratumumab-induced apoptosis: NB-4 cell line. On the procedure: as §1, §2
In test [22] the test system is THP-1. As to the kind of experiment: Apoptosis (Annexin-V flow cytometry). The class given is cell-based. To be noted: antibody 1 μg/ml, 22 hours, early and late apoptosis. Here is the method:
as §1, §2

For test [23], the system named is ML-2. As to the kind of experiment: Apoptosis (Annexin-V flow cytometry). Format: cell-based. The conditions noted are these: antibody 1 μg/ml, 22 hours, early and late apoptosis. On the procedure:
as §1, §2

For `CC1=C(/C=C/C(C)=C/C=C/C(C)=C/C(=O)O)C(C)(C)CCC1` [ATRA, all-trans-retinoic acid], the PE-CD38 molecules/cell in the test with NB-4 AML cell line [1] (10 nM ATRA) came to 185737 molecules/cell; with NB-4 AML cell line [1] (100 nM ATRA), 210570 molecules/cell. Further, the “increase in CD38 receptors” value with NB-4 AML cell line [1] (NB-4 cell line, 10 nM or 100 nM ATRA) is reported as approximately 10 fold.
In the case of daratumumab, the “AML cell killing by apoptosis” value with AML cell lines [2] was “induced AML cell killing by apoptosis”. For the same compound, the CDC was 0% in the test with MOLM-13 [3]; 4% with NB4 [4]; 0% in the test on MV-4-11 [5]; 5% in the test with MOLM-16 [6]; 5% in the test on THP-1 [7]; 0% in the test on ML-2 [8]. Besides, in the test on AML cell lines [10], the CDC result is reported as “did not induce significant ADCC or CDC”. Moreover, the ADCC result in the test with AML cell lines [9] is listed as “did not induce significant ADCC or CDC”; in the test with MOLM-13 [12], 9.40%; in the test on NB4 [13] it was 18.30%; in the test on MV-4-11 [14] it was 2.30%; with MOLM-16 [15], 18.20%; in the test on THP-1 [16], 11.30%. Besides, in the test on ML-2 [17], the ADCC is 6.30%. In the test with AML 3406 model (bone marrow, Ctrl vs Dara), the “total leukemic burden (number of CD45+CD33+ cells per four bones)” value is “no significant difference”. In addition, the “total leukemic burden (number of CD45+CD33+ cells per μl blood)” value in the test with AML 3406 model (peripheral blood) was “significantly reduced total leukemic burden”. Also, the “tumor burden (% leukemic CD45+CD33+ cells)” value in the test with AML 3406 model (peripheral blood), with AML 3406 model (spleen), with AML 8096 model and in the test on AML 7577 model was “reduced tumor burden” throughout. The “total leukemic burden (number of CD45+CD33+ cells per spleen)” value in the test on AML 3406 model (spleen) is “significantly reduced total leukemic burden”. The “percentage of CD38-positive AML blasts” value in test [11] (bone marrow, spleen and peripheral blood (FIG. 4B)) was “reduced”. The “expression of CD38 on leukemia blasts” value in test [11] (bone marrow), in test [11] (peripheral blood) and in test [11] (spleen) was “reduced expression of CD38” in each case. For the same compound, the Apoptosis with MOLM-13 [18] was 10-15%; in the test with MV-4-11 [19], 10-12%; in the test with MOLM-16 [20], 20-30%; in the test on NB-4 AML cell line [21] (NB4, antibody 1 μg/ml, 22 hours, early and late apoptosis), 18%; with THP-1 [22], 5-7%; with ML-2 [23], 5%. In addition, the daratumumab-induced apoptosis is recorded as 18.3% in the test on NB-4 AML cell line [21] (with crosslinking antibody (FIG. 1B)) and 19.2% in the test with NB-4 AML cell line [21] (without crosslinking antibody (FIG. 1A)).
